Measured values published in US20120095024A1, “TOLUIDINE SULFONAMIDES AND THEIR USE” (Elara Pharmaceuticals GmbH, priority 2008, published 2012).

Assays:
[1] = tested on: MCF7 cells; experiment: Cell proliferation assay (ATPlite), MCF-7; format: cell-based, human; conditions: inhibition of cell proliferation, 72 h
Protocol: MCF-7 human breast adenocarcinoma cells and HL-60 acute promyelocytic leukaemia cells were obtained from ATCC (LGC Promochem). HG-1 multiple myeloma cells were obtained from Dr. D. Hose (DKFZ Heidelberg). The CellSensor® HRE-bla HCT116 cell line (colorectal carcinoma) was obtained from Invitrogen.
Cells were grown under humidified 95% air, 5% CO2 at 37° C. in Dulbecco's modified Eagle's medium (DMEM: MCF-7) or RPMI 1640 medium (RPMI: HL-60, HG-1) supplemented with 10% fetal bovine serum (FBS), 100 U/ml penicillin and 100 μg/ml streptomycin, 2 mM L-glutamine, and 2 ng/ml IL-6 (for the HG-1 cell line only). The HCT116 cell line was grown under the same atmospheric conditions in McCoy's 5A medium supplemented with 10% FBS and penicillin/streptomycin as above, in addition to blasticidin as a selection marker at a final concentration of 5 μg/ml.
Cell proliferation experiments were carried out in 96-well tissue culture plates with seeding of 2000 cells/well (MCF-7) or 1000 cells/well (HL-60, HG-1) in 100 μl of the relevant medium. Cells were subsequently incubated under the conditions mentioned for 24 h prior to addition of compounds.
For the determination of compound EC50 values, 10 μl compounds at 11× concentrations in 5.5% DMSO were added to the wells at various concentrations yielding a final constant percentage of 0.5% DMSO at the desired 1× compound concentration. As a positive control, cells were treated with 5.5% DMSO. The cells were then incubated for a further 72 h prior to the measurement.
To determine the degree of inhibition of cell proliferation, cells were treated with ATPlite solution according to the manufacturer's instructions (PerkinElmer, ATPlite 1-step Luminescence ATP Detection Assay System) and luciferase readout measured on an Envision HTS multilabel plate reader (PerkinElmer) in luminescence mode according to established protocols. Raw data were imported into an ActivityBase database (IDBS, ID Business Solutions) and EC50 values calculated using the IDBS program ActivityBase XE. Table 2A and 2B show the IC50 values obtained in the above-outlined cell proliferation assay for exemplary compounds of the invention.

[2] = tested on: estrogen receptor (ER)-mediated transcriptional activity; experiment: Inhibition of estrogen receptor (ER) signaling, ERE-tk-luc transfection assay in MCF-7 cells; format: cell-based; conditions: Homo sapiens, MCF7, ERE-tk-luc luciferase readout, 24 h
Protocol: To determine the effect of the compounds on estrogen receptor (ER)-mediated transcriptional activity a transfection assay using the MCF-7 cell line was performed. A luciferase-coupled ERE-tk-luc construct was obtained from Dr. G. Reid (EMBL).
In brief, MCF-7 cells were maintained as described previously and seeded on the first experimental day at a concentration of 3500 cells/well in 100 μl medium and incubated under standard conditions for 24 h. Following this initial incubation period, transfection was carried out using 5 ng of the ERE-tk-luc construct (per well) and Exgene 500 transfection reagent (Fermentas) in a final buffered solution containing 150 mM NaCl and 20 mM Tris pH 8.4. The plates were then maintained for 3-4 hours until cell culture conditions in the incubator before compounds were added at 11× concentrations to yield the final desired compound concentrations in 0.5% DMSO (in the same manner as for the proliferation assays described previously).
After an additional 24 h incubation period the degree of inhibition of ER-signaling was determined via a luciferase readout. Cells were treated with Britelite™ plus solution according to the manufacturer's instructions (PerkinElmer, britelite plus, Ultra-High Sensitivity Luminescence Reporter Gene Assay System) and luciferase levels measured on an Envision HTS multilabel plate reader (PerkinElmer) in luminescence mode according to established protocols. Raw data were imported into an ActivityBase database (IDBS, ID Business Solutions) and IC50 values calculated using the IDBS program ActivityBase XE.

[3] = tested on: HIF mediated transcription; experiment: Inhibition of activation of HIF mediated transcription under hypoxic conditions (CellSensor HRE-bla HCT-116); format: cell-based; conditions: Homo sapiens; HRE-bla HCT-116 cells, deferoxamine-induced hypoxia, 24 h
Protocol: Inhibition of an activated HIF signaling response under chemically-induced hypoxic conditions due to compound treatment was determined using the CellSensor® HRE-bla HCT-116 stably transfected reporter cell line from Invitrogen according to the manufacturer's instructions. HIF is a transcriptional factor composed of the constitutively expressed HIF1β subunit and one of three HIFα subunits (HIF1α, HIF2α, HIF3α). This assay is responsive towards HIFa activity in general. In one example, HIF-1, when stabilized by hypoxic conditions, upregulates several genes to promote cell survival in low-oxygen conditions. These include glycolysis enzymes, which allow ATP synthesis in an oxygen-independent manner, and vascular endothelial growth factor (VEGF), which promotes angiogenesis. HIF-1 acts by binding to HIF-responsive elements (HREs) in promoters that generally contain the sequence NCGTG.
Cells were maintained as described previously and seeded into 384-well, clear-bottom plates (Corning 3712) at 15000 cells/well in 32 μl assay medium (Opti-MEM [Invitrogen], 0.5% FBS, 100 U/ml penicillin, 100 μg/ml streptomycin, 0.1 mM non-essential amino acids [NEAA], 1 mM sodium pyruvate, 5 mM HEPES [pH 7.3]). Following a 2 h incubation period, compounds (4 μl) were subsequently added to the cells at 10× concentrations in 5% DMSO and incubated under normal conditions for 30 min. To induce hypoxic conditions, 4 μl of a 2 mM deferoxamine (DFO) solution was added to the cells followed by 24 h incubation under standard assay conditions (as described). Control wells included wells containing only medium (no cells) and wells treated with 0.5% DMSO instead of compound.
Prior to the readout, the Substrate Loading Solution was prepared as described in the manufacturer's protocol and 10 μl added to each well. Following a further 2 h incubation period at room temperature and in the dark, fluorescence was measured at two wavelengths (blue channel: ex. 409 nm, em. 460 nm; green channel: ex. 409 nm, em. 530 nm) on a PerkinElmer Envision HTS. For the analysis, the average signal of the cell-free wells at 460 nm and 530 nm was first subtracted from the blue and green channel data, respectively. The blue/green emission ratios were then calculated for each well, dividing the background-corrected blue emission values by the background-corrected green emission values. IC50 values were determined from these ratios using GraphPad Prism (Prism 5, GraphPad software, Inc.).

| Compound | EC50 ([1]; Homo sapiens) | IC50 [2] | EC50 [3] | EC50 [1] |
| --- | --- | --- | --- | --- |
| Cc1ccc(S(=O)(=O)Nc2cc(-c3csc(C#N)c3)ccc2C)cc1 [Example 68, N-[5-(5-Cyano-thiophen-3-yl)-2-methyl-phenyl]-4-methyl-benzenesulfonamide] | < 500 nM |  | < 500 nM |  |
| Cc1ccc(S(=O)(=O)Nc2cc(-c3ccc(C#N)c(F)c3)ccc2C)cc1 [Example 71, N-(4′-Cyano-3′-fluoro-4-methyl-biphenyl-3-yl)-4-methyl-benzenesulfonamide] | < 500 nM |  | < 500 nM |  |
| Cc1ccc(S(=O)(=O)Nc2cc(-c3csc(C#N)c3)ccc2C)cc1F [Example 95, N-(5-(5-cyanothiophen-3-yl)-2-methylphenyl)-3-fluoro-4-methylbenzenesulfonamide] | < 500 nM |  | < 500 nM |  |
| COc1cc(-c2ccc(C)c(NS(=O)(=O)c3ccc(N)cc3)c2)ccc1C#N [Example 102, 4-amino-N-(4′-cyano-3′-methoxy-4-methylbiphenyl-3-yl)benzenesulfonamide] | < 500 nM |  |  |  |
| Cc1ccc(-c2ccc(C#N)cc2)cc1NS(=O)(=O)c1ccc([N+](=O)[O-])c(F)c1 [Example 105, N-(4′-cyano-4-methylbiphenyl-3-yl)-3-fluoro-4-nitrobenzenesulfonamide] | 1000 to 10000 nM |  |  |  |
| Cc1ccc(S(=O)(=O)Nc2cc(-c3ccc(N)cn3)ccc2C)cc1 [Example 106, N-(5-(5-aminopyridin-2-yl)-2-methylphenyl)-4-methylbenzenesulfonamide] | 1000 to 10000 nM |  |  |  |
| COc1nccc(-c2ccc(C)c(NS(=O)(=O)c3ccc(C)cc3)c2)n1 [Example 107, N-(5-(2-methoxypyrimidin-4-yl)-2-methylphenyl)-4-methylbenzenesulfonamide] | 1000 to 10000 nM |  |  |  |
| COc1ccc(S(=O)(=O)Nc2cc(-c3ccc(C#N)s3)ccc2C)cc1OC [Example 108, N-(5-(5-cyanothiophen-2-yl)-2-methylphenyl)-3.4-dimethoxybenzenesulfonamide] |  |  |  | 500 to 1000 nM |
| COc1ccc(S(=O)(=O)Nc2cc(-c3ccc(C#N)s3)ccc2C)cc1C [Example 109, N-(5-(5-cyanothiophen-2-yl)-2-methylphenyl)-4-methoxy-3-methylbenzenesulfonamide] | < 500 nM |  |  |  |
| Cc1ccc(S(=O)(=O)Nc2cc(-c3ccc([N+](=O)[O-])c(C)n3)ccc2C)cc1 [Example 111, 4-methyl-N-(2-methyl-5-(6-methyl-5-nitropyridin-2-yl)phenyl)benzenesulfonamide] | < 500 nM |  |  |  |
| Cc1cc(S(=O)(=O)Nc2cc(-c3ccc(C#N)s3)ccc2C)ccc1F [Example 112, N-(5-(5-cyanothiophen-2-yl)-2-methylphenyl)-4-fluoro-3-methylbenzenesulfonamide] | < 500 nM |  | < 500 nM |  |
| COc1cc(S(=O)(=O)Nc2cc(-c3ccc(C#N)s3)ccc2C)ccc1F [Example 113, N-(5-(5-cyanothiophen-2-yl)-2-methylphenyl)-4-fluoro-3-methoxybenzenesulfonamide] | 500 to 1000 nM |  |  |  |
| N-[5-(5-Cyano-pyridin-3-yl)-2-methyl-phenyl]-4-methoxy-benzenesulfonamide [Example 74] |  |  |  | < 500 nM |

The next lines start with results.

| EC50 ([1]; Homo sapiens) | IC50 [2] | EC50 [3] | Compound | EC50 [1] |
| --- | --- | --- | --- | --- |
| < 500 nM | < 500 nM |  | Cc1ccc(S(=O)(=O)Nc2cc(-c3ccco3)ccc2C)cc1 [Example 4, N-(5-Furan-2-yl-2-methyl-phenyl)-4-methyl-benzenesulfonamide] |  |
| < 500 nM | < 500 nM |  | Cc1ccc(S(=O)(=O)Nc2cc(-c3ccoc3)ccc2C)cc1 [Example 5, N-(5-Furan-3-yl-2-methyl-phenyl)-4-methyl-benzenesulfonamide] |  |
| < 500 nM | < 500 nM | < 500 nM | Cc1ccc(S(=O)(=O)Nc2cc(-c3ccc(C#N)cn3)ccc2C)cc1 [Example 43, N-[5-(5-Cyano-pyridin-2-yl)-2-methyl-phenyl]-4-methyl-benzenesulfonamide] |  |
| < 500 nM | < 500 nM |  | COc1ccc(S(=O)(=O)Nc2cc(-c3ccc(C#N)cn3)ccc2C)cc1 [Example 49, N-[5-(5-Cyano-pyridin-2-yl)-2-methyl-phenyl]-4-methoxy-benzenesulfonamide] |  |
| < 500 nM |  | < 500 nM | COc1ccc(S(=O)(=O)Nc2cc(-c3ccc(C#N)c(OC)c3)ccc2C)cc1F [Example 103, N-(4′-cyano-3′-methoxy-4-methylbiphenyl-3-yl)-3-fluoro-4-methoxybenzenesulfonamide] |  |
| 1000 to 10000 nM |  |  | Cc1ccc(-c2ccc(C#N)cc2)cc1NS(=O)(=O)c1cccc(F)c1 [Example 104, N-(4′-cyano-4-methylbiphenyl-3-yl)-3-fluorobenzenesulfonamide] |  |
| < 500 nM |  |  | Cc1ccc(-c2ccc(C#N)cc2)cc1NS(=O)(=O)c1ccc(N)c(F)c1 [Example 110, 4-amino-N-(4′-cyano-4-methylbiphenyl-3-yl)-3-fluorobenzenesulfonamide] |  |
| < 500 nM |  | < 500 nM | Cc1ccc(-c2ccc(C#N)s2)cc1NS(=O)(=O)c1ccc2c(c1)OCO2 [Example 114, N-(5-(5-cyanothiophen-2-yl)-2-methylphenyl)benzo[d][1,3]dioxole-5-sulfonamide] |  |
| < 500 nM |  |  | Cc1ccc(-c2ccc(C#N)cc2)cc1NS(=O)(=O)c1ccc(N(C)C)cc1 [Example 115, N-(4′-cyano-4-methylbiphenyl-3-yl)-4-(dimethylamino)benzenesulfonamide] |  |
| 500 to 1000 nM |  |  | Cc1ccc(-c2ccc(C#N)s2)cc1NS(=O)(=O)c1ccc(C#N)cc1 [Example 116, 4-cyano-N-(5-(5-cyanothiophen-2-yl)-2-methylphenyl)benzenesulfonamide] |  |
